Data taken from PubChem BioAssay AID248 (DTP/NCI, 2004).
Where “and” joins values, the source holds several entries; their conditions need not be identical. Equal entries are not always repeated. Inconclusive results and toxic doses are left out. Rule as the data show it: active = T/C of 150% or more; inactive = T/C below 125%.

System: L1210 leukemia ip in BDF1 mice, survival T/C
Assay: NCI In Vivo Anticancer Drug Screen. Data for tumor model L1210 Leukemia (intraperitoneal) in B6D2F1 (BDF1) mice
Conditions: endpoint: mean survival time, higher = longer survival
In short: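 Transplantable tumor model; survival measured in treated vs vehicle control mice. Value = treated/control.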

[1] = dose: 100.0 mg/kg/injection, schedule: Q01DX009 (ip), vehicle: Klucel (hydroxypropylcellulose) (HPC)
[2] = dose: 100.0 mg/kg/injection, schedule: Q04DX003 (ip), vehicle: Klucel (hydroxypropylcellulose) (HPC)
[3] = dose: 200.0 mg/kg/injection, schedule: Q04DX003 (ip), vehicle: Klucel (hydroxypropylcellulose) (HPC)
[4] = dose: 400.0 mg/kg/injection, schedule: Q04DX003 (ip), vehicle: Klucel (hydroxypropylcellulose) (HPC)
[5] = dose: 100.0 mg/kg/injection, schedule: Q01DX001 (ip), vehicle: saline
[6] = dose: 200.0 mg/kg/injection, schedule: Q01DX001 (ip), vehicle: saline
[7] = dose: 400.0 mg/kg/injection, schedule: Q01DX001 (ip), vehicle: saline
[8] = dose: 100.0 mg/kg/injection, schedule: Q01DX009 (ip), vehicle: saline with Tween-80
[9] = dose: 100.0 mg/kg/injection, schedule: Q04DX003 (ip), vehicle: saline with Tween-80
[10] = dose: 200.0 mg/kg/injection, schedule: Q01DX009 (ip), vehicle: saline with Tween-80
[11] = dose: 200.0 mg/kg/injection, schedule: Q04DX003 (ip), vehicle: saline with Tween-80
[12] = dose: 400.0 mg/kg/injection, schedule: Q01DX009 (ip), vehicle: saline with Tween-80
[13] = dose: 400.0 mg/kg/injection, schedule: Q04DX003 (ip), vehicle: saline with Tween-80

Measured: T/C

C/C(=C1\C(=O)Nc2ccccc21)c1cccnc1
inactive: dose: 25.0 mg/kg/injection, schedule: Q01DX Z (ip), vehicle: carboxymethylcellulose (CMC) 103 % of control | dose: 50.0 mg/kg/injection, schedule: Q01DX Z (ip), vehicle: carboxymethylcellulose (CMC) 96 % of control | dose: 100.0 mg/kg/injection, schedule: Q01DX Z (ip), vehicle: carboxymethylcellulose (CMC) 103 % of control | dose: 200.0 mg/kg/injection, schedule: Q01DX Z (ip), vehicle: carboxymethylcellulose (CMC) 111 % of control

Cc1ccc2c(Br)cc(Br)c(O)c2n1
inactive: dose: 25.0 mg/kg/injection, schedule: Q01DX009 (ip), vehicle: Klucel (hydroxypropylcellulose) (HPC) 94 % of control | dose: 50.0 mg/kg/injection, schedule: Q01DX009 (ip), vehicle: Klucel (hydroxypropylcellulose) (HPC) 96 % of control | [1] 97 % of control and 89 % of control | [2] 97 % of control | [3] 112 % of control | [4] 98 % of control

C#CP(CCCC)CCCC
inactive: dose: 25.0 mg/kg/injection, schedule: Q04DX002 (ip), vehicle: saline with Tween-80 97 % of control | dose: 50.0 mg/kg/injection, schedule: Q04DX002 (ip), vehicle: saline with Tween-80 91 % of control | dose: 100.0 mg/kg/injection, schedule: Q04DX002 (ip), vehicle: saline with Tween-80 95 % of control and 102 % of control

CN(C)CCC1(c2ccccc2)CCN(C)C1=O (stereo not given)
inactive: dose: 75.0 mg/kg/injection, schedule: Q01DX001 (ip), vehicle: carboxymethylcellulose (CMC) 95 % of control | dose: 150.0 mg/kg/injection, schedule: Q01DX001 (ip), vehicle: carboxymethylcellulose (CMC) 95 % of control

COc1ccc2c(=O)c(O)c(-c3ccc(OC)c(OC)c3)oc2c1
inactive: dose: 50.0 mg/kg/injection, schedule: Q01DX001 (ip), vehicle: saline 97 % of control | [5] 94 % of control | [6] 92 % of control | [7] 94 % of control

CCOC(=O)C1C(=O)C2CCc3c(ccc4ccccc34)N2C1=O (stereo not given)
inactive: [2] 98 % of control | [3] 104 % of control

Nc1nc(N)c2nc(CNc3ccc(C(=O)NC(CCC(=O)O)C(=O)O)cc3)cnc2n1 (stereo not given)
inactive: dose: 0.02 mg/kg/injection, schedule: Q01DX Z (sc), vehicle: saline 122 % of control | dose: 0.03 mg/kg/injection, schedule: Q01DX Z (ip), vehicle: saline 118 % of control | dose: 0.05 mg/kg/injection, schedule: Q01DX006 (iv), vehicle: saline 114 % of control | dose: 0.05 mg/kg/injection, schedule: Q01DX010 (ip), vehicle: other 98 % of control and 112 % of control | dose: 0.05 mg/kg/injection, schedule: Q01DX Z (im), vehicle: saline 119 % of control | dose: 0.06 mg/kg/injection, schedule: Q01DX Z (ip), vehicle: saline 105 % of control | dose: 0.1 mg/kg/injection, schedule: Q01DX010 (ip), vehicle: other 108 % of control | dose: 0.1 mg/kg/injection, schedule: Q01DX Z (im), vehicle: saline 113 % of control | dose: 0.1 mg/kg/injection, schedule: Q01DX Z (ip), vehicle: saline 119 % of control | dose: 0.2 mg/kg/injection, schedule: Q01DX Z (ip), vehicle: saline 96 % of control and 105 % of control | dose: 0.2 mg/kg/injection, schedule: Q01DX Z (oral), vehicle: saline 119 % of control | dose: 0.2 mg/kg/injection, schedule: Q01DX Z (sc), vehicle: saline 101 % of control and 114 % of control | dose: 0.5 mg/kg/injection, schedule: Q01DX001 (ip), vehicle: saline 111 % of control and 114 % of control | dose: 0.5 mg/kg/injection, schedule: Q01DX Z (oral), vehicle: saline 106 % of control | dose: 0.5 mg/kg/injection, schedule: Q01DX Z (sc), vehicle: saline 103 % of control | dose: 1.0 mg/kg/injection, schedule: Q01DX001 (ip), vehicle: saline 115 % of control | dose: 1.0 mg/kg/injection, schedule: Q01DX Z (ip), vehicle: saline 94 % of control | dose: 2.0 mg/kg/injection, schedule: Q01DX001 (ip), vehicle: saline 117 % of control and 121 % of control | dose: 16.0 mg/kg/injection, schedule: Q01DX001 (ip), vehicle: saline 106 % of control and 124 % of control | dose: 32.0 mg/kg/injection, schedule: Q01DX001 (ip), vehicle: saline 96 % of control and 120 % of control | dose: 64.0 mg/kg/injection, schedule: Q01DX001 (ip), vehicle: saline 105 % of control | dose: 128.0 mg/kg/injection, schedule: Q01DX001 (ip), vehicle: saline 105 % of control and 86 % of control | dose: 256.0 mg/kg/injection, schedule: Q01DX001 (ip), vehicle: saline 100 % of control
active: dose: 0.02 mg/kg/injection, schedule: Q01DX Z (ip), vehicle: saline 170 % of control | dose: 0.2 mg/kg/injection, schedule: Q01DX Z (im), vehicle: saline 154 % of control | dose: 0.4 mg/kg/injection, schedule: Q01DX010 (ip), vehicle: other 162 % of control

CN(C)CCCC1c2ccccc2Oc2ccc(C(F)(F)F)cc21 (stereo not given)
inactive: dose: 0.78 mg/kg/injection, schedule: Q04DX003 (ip), vehicle: saline 103 % of control | dose: 1.56 mg/kg/injection, schedule: Q04DX003 (ip), vehicle: saline 102 % of control | dose: 3.12 mg/kg/injection, schedule: Q04DX003 (ip), vehicle: saline 105 % of control | dose: 6.25 mg/kg/injection, schedule: Q04DX003 (ip), vehicle: saline 105 % of control | dose: 12.5 mg/kg/injection, schedule: Q04DX003 (ip), vehicle: saline 102 % of control | dose: 25.0 mg/kg/injection, schedule: Q04DX003 (ip), vehicle: saline 117 % of control | dose: 50.0 mg/kg/injection, schedule: Q01DX009 (ip), vehicle: saline 100 % of control

C1CCc2c(sc3c2CCCC3)C1
inactive: dose: 50.0 mg/kg/injection, schedule: Q01DX001 (ip), vehicle: carboxymethylcellulose (CMC) 98 % of control | dose: 100.0 mg/kg/injection, schedule: Q01DX001 (ip), vehicle: carboxymethylcellulose (CMC) 104 % of control | dose: 200.0 mg/kg/injection, schedule: Q01DX001 (ip), vehicle: carboxymethylcellulose (CMC) 98 % of control | dose: 400.0 mg/kg/injection, schedule: Q01DX001 (ip), vehicle: carboxymethylcellulose (CMC) 107 % of control

CN(C)C(Cc1ccccc1)(C(=O)O)c1ccccc1 (stereo not given)
inactive: [5] 96 % of control | [6] 91 % of control | [7] 88 % of control

COC(=O)C(CSCSC)NC(=O)NC1CCCCC1 (stereo not given)
inactive: [8] 91 % of control | [9] 102 % of control | [10] 91 % of control | [11] 89 % of control | [12] 91 % of control | [13] 91 % of control

NCCc1ccc(S(=O)(=O)O)cc1[N+](=O)[O-]
inactive: [1] 96 % of control | [2] 98 % of control | dose: 200.0 mg/kg/injection, schedule: Q01DX009 (ip), vehicle: Klucel (hydroxypropylcellulose) (HPC) 89 % of control | [3] 94 % of control | [4] 98 % of control

N=C(N)SCCSC(=N)N
inactive: dose: 100.0 mg/kg/injection, schedule: Q04DX003 (ip), vehicle: saline sonified 93 % of control

CCc1ccc(OS(=O)(=O)c2ccccc2[N+](=O)[O-])cc1
inactive: [8] 96 % of control | [2] 100 % of control | [10] 114 % of control | [3] 100 % of control | [12] 103 % of control | [4] 95 % of control

CCOC(=O)C(=O)C1CCCC1=O (stereo not given)
inactive: [8] 102 % of control | [9] 92 % of control | [10] 98 % of control | [11] 100 % of control | [12] 96 % of control | [13] 94 % of control
